Measured values: US10105357B2, “Indication of antibiotic drugs for preparation of cancer inhibition pharmaceutical composition” (LAUNX BIOMEDICAL CO., LTD., priority 2014, dated 2018)

Experiments:
T24 = assay: Cell viability analysis, bladder cancer T24; assay type: cell-based, human
[1] = test system: AGS (Gastric Adenocarcinoma); assay: Cell viability analysis, gastric cancer AGS; assay type: cell-based, human
[2] = test system: PC3 (p53−) (Prostate Adenocarcinoma); assay: Cell viability analysis, prostate cancer PC3; assay type: cell-based, human
TOV-21G = assay: Cell viability analysis, ovarian cancer TOV-21G; assay type: cell-based, human
[3] = test system: Hep3B (hepatocellular carcinoma); assay: Cell viability analysis, hepatic cancer Hep3B; assay type: cell-based, human
[4] = test system: HI650 (Lung Adenocarcinoma); assay: Cell viability analysis, lung cancer HI650; assay type: cell-based, human
[5] = test system: C-33A (Cervical carcinoma); assay: Cell viability analysis, cervical cancer C-33A; assay type: cell-based, human
[6] = test system: MCF7 (Mammary Gland, Adenocarcinoma); assay: Cell viability analysis, breast cancer MCF7; assay type: cell-based, human
[7] = test system: A375 (Amelanotic Melanoma); assay: Cell viability analysis, skin cancer A375; assay type: cell-based, human
[8] = test system: HepG2 (Hepatocellular Carcinoma); assay: Cell viability analysis, hepatic cancer HepG2; assay type: cell-based, human
[9] = test system: SAS (Tongue squamous cell carcinoma); assay: Cell viability analysis, tongue cancer SAS; assay type: cell-based, human
BxPC-3 = assay: Cell viability analysis, pancreatic cancer BxPC-3; assay type: cell-based, human
[10] = test system: MDA-MB-231 (Mammary Gland, Adenocarcinoma); assay: Cell viability analysis, breast cancer MDA-MB-231; assay type: cell-based, human
[11] = test system: LoVo (Colorectal Adenocarcinoma); assay: Cell viability analysis, colon cancer LoVo; assay type: cell-based, human
[12] = test system: 786-O (Renal adenocarcinoma); assay: Cell viability analysis, renal cancer 786-O; assay type: cell-based, human
[13] = test system: MKN-45 (Gastric Adenocarcinoma); assay: Cell viability analysis, gastric cancer MKN-45; assay type: cell-based, human
[14] = test system: HCT116 (p53+) (Colorectal Carcinoma)
AsPC-1 = assay: Cell viability analysis, pancreatic cancer AsPC-1; assay type: cell-based, human
[15] = test system: BCC (basal cell carcinoma); assay: Cell viability analysis, skin cancer BCC; assay type: cell-based, human
NIH: OVCAR-3 = assay: Cell viability analysis, ovarian cancer NIH: OVCAR-3; assay type: cell-based, human
U-2OS = assay: Cell viability analysis, osteosarcoma U-2OS; assay type: cell-based, human
[16] = test system: HeLa (Cervix Adenocarcinoma); assay: Cell viability analysis, cervical cancer HeLa; assay type: cell-based, human
[17] = test system: A549 (Lung Adenocarcinoma); assay: Cell viability analysis, lung cancer A549; assay type: cell-based, human
[18] = test system: TSGH-8301 (Urinary Bladder Carcinoma); assay: Cell viability analysis, bladder cancer TSGH-8301; assay type: cell-based, human

## O=C(Nc1ccc([N+](=O)[O-])cc1Cl)c1cc(Cl)ccc1O [Niclosamide (Niclocide)]
T24
  The results of antibiotic drug inhibiting cancer cell lines (cell viability analysis), T24: 26.49
[1]
  The results of antibiotic drug inhibiting cancer cell lines (cell viability analysis), AGS: 23.05
[2]
  The results of antibiotic drug inhibiting cancer cell lines (cell viability analysis), PC-3: 42.84
TOV-21G
  The results of antibiotic drug inhibiting cancer cell lines (cell viability analysis), TOV-21G: 17.59
[3]
  The results of antibiotic drug inhibiting cancer cell lines (cell viability analysis), Hep3B: 60.79
[4]
  The results of antibiotic drug inhibiting cancer cell lines (cell viability analysis), H1650: 36.77
[5]
  The results of antibiotic drug inhibiting cancer cell lines (cell viability analysis), C-33A: 39.49
[6]
  The results of antibiotic drug inhibiting cancer cell lines (cell viability analysis), MCF-7: 33.36
[7]
  The results of antibiotic drug inhibiting cancer cell lines (cell viability analysis), A375: 20.26
[8]
  The results of antibiotic drug inhibiting cancer cell lines (cell viability analysis), HepG2: 37.55
[9]
  The results of antibiotic drug inhibiting cancer cell lines (cell viability analysis), SAS: 23.94
BxPC-3
  The results of antibiotic drug inhibiting cancer cell lines (cell viability analysis), BxPC-3: 41.93
[10]
  The results of antibiotic drug inhibiting cancer cell lines (cell viability analysis), MDA-MB231: 37.69
[11]
  The results of antibiotic drug inhibiting cancer cell lines (cell viability analysis), LoVo: 41.95
[12]
  The results of antibiotic drug inhibiting cancer cell lines (cell viability analysis), 786-O: 25.52
[13]
  The results of antibiotic drug inhibiting cancer cell lines (cell viability analysis), MKN-45: 50.74
[14]
  viability: 23.9%
AsPC-1
  The results of antibiotic drug inhibiting cancer cell lines (cell viability analysis), AsPC-1: 40.72
[15]
  The results of antibiotic drug inhibiting cancer cell lines (cell viability analysis), BCC: 30.66
NIH: OVCAR-3
  The results of antibiotic drug inhibiting cancer cell lines (cell viability analysis), NIH-OVCAR-3: 54.68
U-2OS
  The results of antibiotic drug inhibiting cancer cell lines (cell viability analysis), U2OS: 26.74
[16]
  The results of antibiotic drug inhibiting cancer cell lines (cell viability analysis), HeLa: 25.4
[17]
  The results of antibiotic drug inhibiting cancer cell lines (cell viability analysis), A549: 16.68
[18]
  The results of antibiotic drug inhibiting cancer cell lines (cell viability analysis), TSGH-8301: 35.94

## CC(=O)Oc1ccccc1C(=O)Nc1ncc([N+](=O)[O-])s1 [Nitazoxanide (Alinia, Annita)]
T24
  The results of antibiotic drug inhibiting cancer cell lines (cell viability analysis), T24: 76.47
[1]
  The results of antibiotic drug inhibiting cancer cell lines (cell viability analysis), AGS: 99.04
[2]
  The results of antibiotic drug inhibiting cancer cell lines (cell viability analysis), PC-3: 90.27
TOV-21G
  The results of antibiotic drug inhibiting cancer cell lines (cell viability analysis), TOV-21G: 62.56
[3]
  The results of antibiotic drug inhibiting cancer cell lines (cell viability analysis), Hep3B: 106.8
[4]
  The results of antibiotic drug inhibiting cancer cell lines (cell viability analysis), H1650: 85.86
[5]
  The results of antibiotic drug inhibiting cancer cell lines (cell viability analysis), C-33A: 103.9
[6]
  The results of antibiotic drug inhibiting cancer cell lines (cell viability analysis), MCF-7: 79.28
[7]
  The results of antibiotic drug inhibiting cancer cell lines (cell viability analysis), A375: 94.2
[8]
  The results of antibiotic drug inhibiting cancer cell lines (cell viability analysis), HepG2: 107.5
[9]
  The results of antibiotic drug inhibiting cancer cell lines (cell viability analysis), SAS: 78.89
BxPC-3
  The results of antibiotic drug inhibiting cancer cell lines (cell viability analysis), BxPC-3: 89.5
[10]
  The results of antibiotic drug inhibiting cancer cell lines (cell viability analysis), MDA-MB231: 91.23
[11]
  The results of antibiotic drug inhibiting cancer cell lines (cell viability analysis), LoVo: 94.76
[12]
  The results of antibiotic drug inhibiting cancer cell lines (cell viability analysis), 786-O: 44.2
[13]
  The results of antibiotic drug inhibiting cancer cell lines (cell viability analysis), MKN-45: 97.28
[14]
  viability: 98.4%
AsPC-1
  The results of antibiotic drug inhibiting cancer cell lines (cell viability analysis), AsPC-1: 84.09
[15]
  The results of antibiotic drug inhibiting cancer cell lines (cell viability analysis), BCC: 76
NIH: OVCAR-3
  The results of antibiotic drug inhibiting cancer cell lines (cell viability analysis), NIH-OVCAR-3: 104.5
U-2OS
  The results of antibiotic drug inhibiting cancer cell lines (cell viability analysis), U2OS: 83.33
[16]
  The results of antibiotic drug inhibiting cancer cell lines (cell viability analysis), HeLa: 84.93
[17]
  The results of antibiotic drug inhibiting cancer cell lines (cell viability analysis), A549: 95.57
[18]
  The results of antibiotic drug inhibiting cancer cell lines (cell viability analysis), TSGH-8301: 87.18

## CS(=O)(=O)c1ccc([C@@H](O)[C@@H](CO)NC(=O)C(Cl)Cl)cc1 [Thiamphenicol (Thiophenicol)]
T24
  The results of antibiotic drug inhibiting cancer cell lines (cell viability analysis), T24: 164
[1]
  The results of antibiotic drug inhibiting cancer cell lines (cell viability analysis), AGS: 140.3
[2]
  The results of antibiotic drug inhibiting cancer cell lines (cell viability analysis), PC-3: 150.2
TOV-21G
  The results of antibiotic drug inhibiting cancer cell lines (cell viability analysis), TOV-21G: 105.7
[3]
  The results of antibiotic drug inhibiting cancer cell lines (cell viability analysis), Hep3B: 103.3
[4]
  The results of antibiotic drug inhibiting cancer cell lines (cell viability analysis), H1650: 94.92
[5]
  The results of antibiotic drug inhibiting cancer cell lines (cell viability analysis), C-33A: 140.2
[6]
  The results of antibiotic drug inhibiting cancer cell lines (cell viability analysis), MCF-7: 89.24
[7]
  The results of antibiotic drug inhibiting cancer cell lines (cell viability analysis), A375: 112
[8]
  The results of antibiotic drug inhibiting cancer cell lines (cell viability analysis), HepG2: 143.9
[9]
  The results of antibiotic drug inhibiting cancer cell lines (cell viability analysis), SAS: 54.04
BxPC-3
  The results of antibiotic drug inhibiting cancer cell lines (cell viability analysis), BxPC-3: 86.08
[10]
  The results of antibiotic drug inhibiting cancer cell lines (cell viability analysis), MDA-MB231: 95.4
[11]
  The results of antibiotic drug inhibiting cancer cell lines (cell viability analysis), LoVo: 96.08
[12]
  The results of antibiotic drug inhibiting cancer cell lines (cell viability analysis), 786-O: 93.48
[13]
  The results of antibiotic drug inhibiting cancer cell lines (cell viability analysis), MKN-45: 177
[14]
  viability: 150%
AsPC-1
  The results of antibiotic drug inhibiting cancer cell lines (cell viability analysis), AsPC-1: 102.5
[15]
  The results of antibiotic drug inhibiting cancer cell lines (cell viability analysis), BCC: 111.8
NIH: OVCAR-3
  The results of antibiotic drug inhibiting cancer cell lines (cell viability analysis), NIH-OVCAR-3: 115.7
U-2OS
  The results of antibiotic drug inhibiting cancer cell lines (cell viability analysis), U2OS: 51.12
[16]
  The results of antibiotic drug inhibiting cancer cell lines (cell viability analysis), HeLa: 90.82
[17]
  The results of antibiotic drug inhibiting cancer cell lines (cell viability analysis), A549: 97.41
[18]
  The results of antibiotic drug inhibiting cancer cell lines (cell viability analysis), TSGH-8301: 136.8

## CC[C@H](C)C(=O)O[C@H]1CCC=C2C=C[C@H](C)[C@H](CC[C@@H]3C[C@@H](O)CC(=O)O3)[C@H]21 [Mevastatin]
T24; Homo sapiens, T-24, 72 h, T24, repeated experiment, read-out: The results of antibiotic drug inhibiting cancer cell lines (cell viability analysis), T24
  viability at 10 µM: 67.5%
[1]; Homo sapiens, 72 h, AGS, repeated experiment, read-out: The results of antibiotic drug inhibiting cancer cell lines (cell viability analysis), AGS
  viability at 10 µM: 71.2%
[2]; Homo sapiens, 72 h, PC-3, repeated experiment, read-out: The results of antibiotic drug inhibiting cancer cell lines (cell viability analysis), PC-3
  viability at 10 µM: 65.6%
TOV-21G; Homo sapiens, TOV21G, 72 h, TOV-21G, repeated experiment, read-out: The results of antibiotic drug inhibiting cancer cell lines (cell viability analysis), TOV-21G
  viability at 10 µM: 44.7%
[3]; Homo sapiens, 72 h, Hep3B, repeated experiment, read-out: The results of antibiotic drug inhibiting cancer cell lines (cell viability analysis), Hep3B
  viability at 10 µM: 97.7%
[4]; Homo sapiens, NCI-H1650, 72 h, H1650, repeated experiment, read-out: The results of antibiotic drug inhibiting cancer cell lines (cell viability analysis), H1650
  viability at 10 µM: 69.4%
[5]; Homo sapiens, 72 h, C-33A, repeated experiment, read-out: The results of antibiotic drug inhibiting cancer cell lines (cell viability analysis), C-33A
  viability at 10 µM: 102%
[6]; Homo sapiens, MCF7, 72 h, MCF-7, repeated experiment, read-out: The results of antibiotic drug inhibiting cancer cell lines (cell viability analysis), MCF-7
  viability at 10 µM: 77.8%
[7]; Homo sapiens, A-375, 72 h, A375, repeated experiment, read-out: The results of antibiotic drug inhibiting cancer cell lines (cell viability analysis), A375
  viability at 10 µM: 30.9%
[8]; Homo sapiens, HepG2, 72 h, HepG2, repeated experiment, read-out: The results of antibiotic drug inhibiting cancer cell lines (cell viability analysis), HepG2
  viability at 10 µM: 98.7%
[9]; Homo sapiens, 72 h, SAS, repeated experiment, read-out: The results of antibiotic drug inhibiting cancer cell lines (cell viability analysis), SAS
  viability at 10 µM: 81%
BxPC-3; Homo sapiens, 72 h, BxPC-3, repeated experiment, read-out: The results of antibiotic drug inhibiting cancer cell lines (cell viability analysis), BxPC-3
  viability at 10 µM: 83.6%
[10]; Homo sapiens, MDA-MB-231, 72 h, MDA-MB231, repeated experiment, read-out: The results of antibiotic drug inhibiting cancer cell lines (cell viability analysis), MDA-MB231
  viability at 10 µM: 56.1%
[11]; Homo sapiens, LoVo, 72 h, read-out: The results of antibiotic drug inhibiting cancer cell lines (cell viability analysis), LoVo, repeated experiment
  viability at 10 µM: 90.5%
[12]; Homo sapiens, 786-0, 72 h, 786-O, repeated experiment, read-out: The results of antibiotic drug inhibiting cancer cell lines (cell viability analysis), 786-O
  viability at 10 µM: 48%
[13]; Homo sapiens, MKN-45, 72 h, MKN-45, repeated experiment, read-out: The results of antibiotic drug inhibiting cancer cell lines (cell viability analysis), MKN-45
  viability at 10 µM: 92.7%
[14]
  viability: 73.6%
AsPC-1; Homo sapiens, ASPC1, 72 h, AsPC-1, repeated experiment, read-out: The results of antibiotic drug inhibiting cancer cell lines (cell viability analysis), AsPC-1
  viability at 10 µM: 72.3%
[15]; Homo sapiens, 72 h, BCC, repeated experiment, read-out: The results of antibiotic drug inhibiting cancer cell lines (cell viability analysis), BCC
  viability at 10 µM: 29.8%
NIH: OVCAR-3; Homo sapiens, 72 h, NIH-OVCAR-3, repeated experiment, read-out: The results of antibiotic drug inhibiting cancer cell lines (cell viability analysis), NIH-OVCAR-3
  viability at 10 µM: 100%
U-2OS; Homo sapiens, 72 h, U2OS, repeated experiment, read-out: The results of antibiotic drug inhibiting cancer cell lines (cell viability analysis), U2OS
  viability at 10 µM: 85.3%
[16]; Homo sapiens, HeLa, 72 h, HeLa, repeated experiment, read-out: The results of antibiotic drug inhibiting cancer cell lines (cell viability analysis), HeLa
  viability at 10 µM: 90.5%
[18]; Homo sapiens, 72 h, TSGH-8301, repeated experiment, read-out: The results of antibiotic drug inhibiting cancer cell lines (cell viability analysis), TSGH-8301
  viability at 10 µM: 94.4%
